Activity calls are given as the source filed them. No cut-off for these calls is given here.
Columns and labels:
[1] = target: T1, Keap1/Nrf2 (Homo sapiens, UniProt Q14145); experiment: Inhibition of recombinant human KEAP1 Kelch domain (321 to 609 residues) expressed in Escherichia coli BL21 (DE3)pLysS cells interaction with FITC-9mer Nrf2 (unknown origin) incubated for 30 mins under shaking condition by TR-FRET assay
[2] = test system: BV-2; experiment: Cytotoxicity against mouse BV-2 cells up to 50 uM by Alamar blue assay; type: cell-based
[3] = target: T1, Keap1/Nrf2; experiment: Inhibition of recombinant human KEAP1 Kelch domain (321 to 609 residues) expressed in Escherichia coli BL21 (DE3)pLysS cells interaction with FITC-9mer Nrf2 (unknown origin) incubated for 30 mins under shaking condition by fluorescence polarization assay
[4] = target: T2, Nuclear factor erythroid 2-related factor 2 (Mus musculus) (UniProt Q60795); experiment: Activation of Nrf2 in mouse BV-2 cells assessed as increase in HO-1 mRNA level at 10 uM measured within 6 hrs by qRT-PCR analysis relative to negative control; type: cell-based; conditions: time hrs <6
T2 sequence (whole entry): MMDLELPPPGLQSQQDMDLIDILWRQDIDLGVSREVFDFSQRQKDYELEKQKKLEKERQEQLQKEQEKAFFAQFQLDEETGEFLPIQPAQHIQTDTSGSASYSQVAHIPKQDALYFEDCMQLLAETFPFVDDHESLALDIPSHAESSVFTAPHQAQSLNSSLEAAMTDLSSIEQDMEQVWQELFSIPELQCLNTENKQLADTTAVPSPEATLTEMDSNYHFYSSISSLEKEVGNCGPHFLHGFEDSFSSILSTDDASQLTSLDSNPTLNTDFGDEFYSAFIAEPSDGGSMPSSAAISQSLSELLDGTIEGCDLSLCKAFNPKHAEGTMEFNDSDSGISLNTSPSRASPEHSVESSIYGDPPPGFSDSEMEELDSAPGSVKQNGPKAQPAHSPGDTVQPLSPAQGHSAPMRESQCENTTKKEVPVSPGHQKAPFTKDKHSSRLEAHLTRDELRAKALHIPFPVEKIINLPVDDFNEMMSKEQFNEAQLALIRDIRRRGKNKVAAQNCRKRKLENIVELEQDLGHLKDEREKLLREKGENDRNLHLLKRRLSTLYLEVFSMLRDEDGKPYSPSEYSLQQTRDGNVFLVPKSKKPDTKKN

[5] = test system: HepG2; experiment: Cytotoxicity against human HepG2 cells up to 50 uM by Alamar blue assay; type: cell-based
[6] = target: Keap1/Nrf2 (Homo sapiens) (UniProt Q16236+Q14145); experiment: Inhibition of Keap1-Nrf2 protein-protein interaction in human HepG2-ARE-C8 cells assessed as Nrf2 activation mediated ARE-driven luciferase activity by measuring fold change at 10 uM measured after 24 hrs by luciferase reporter gene assay; type: cell-based
[7] = target: T2, Nuclear factor erythroid 2-related factor 2 (Mus musculus); experiment: Activation of Nrf2 in mouse BV-2 cells assessed as increase in HO-1 mRNA level at 10 uM measured after 24 hrs by qRT-PCR analysis relative to control; type: cell-based; conditions: filed as activator
[8] = target: T2, Nuclear factor erythroid 2-related factor 2 (Mus musculus); experiment: Activation of Nrf2 in mouse BV-2 cells assessed as upregulation of HO-1 protein expression at 20 uM measured after 24 hrs by Western blot analysis; type: cell-based; conditions: filed as activator
[9] = target: T2, Nuclear factor erythroid 2-related factor 2 (Mus musculus); experiment: Activation of Nrf2 in mouse BV-2 cells assessed as upregulation of NQO-1 protein expression at 20 uM measured after 24 hrs by Western blot analysis; type: cell-based; conditions: filed as activator
[10] = target: T2, Nuclear factor erythroid 2-related factor 2 (Mus musculus); experiment: Activation of Nrf2 in mouse BV-2 cells assessed as increase in NQO-1 mRNA level at 10 uM measured after 6 hrs by qRT-PCR analysis relative to control; type: cell-based; conditions: filed as activator
[11] = target: T2, Nuclear factor erythroid 2-related factor 2 (Mus musculus); experiment: Activation of Nrf2 in mouse BV-2 cells assessed as increase in DNA binding activity at 10 uM measured after 6 hrs by spectrophotometric analysis relative to control; type: cell-based; conditions: filed as activator
[12] = target: T2, Nuclear factor erythroid 2-related factor 2 (Mus musculus); experiment: Activation of Nrf2 in mouse BV-2 cells assessed as upregulation of HO-1 protein expression at 10 uM measured after 24 hrs by Western blot analysis relative to control; type: cell-based; conditions: filed as activator
[13] = target: T2, Nuclear factor erythroid 2-related factor 2 (Mus musculus); experiment: Activation of Nrf2 in mouse BV-2 cells assessed as increase in translocation of Nrf2 into nucleus at 10 uM measured after 6 to 24 hrs by […]; type: cell-based; conditions: filed as activator, time 6-24 hrs
[14] = test system: BV-2; experiment: Antiinflammatory activity in mouse BV-2 cells assessed as suppression of LPS-induced TNF-alpha mRNA expression at 10 uM measured up to 24 hrs by qRT-PCR analysis; type: functional, cell-based
[15] = target: T2, Nuclear factor erythroid 2-related factor 2 (Mus musculus); experiment: Activation of Nrf2 in mouse BV-2 cells assessed as increase in DNA binding activity at 10 uM measured after 24 hrs by spectrophotometric analysis relative to control; type: cell-based; conditions: filed as activator
[16] = target: T2, Nuclear factor erythroid 2-related factor 2 (Mus musculus); experiment: Activation of Nrf2 in mouse BV-2 cells assessed as increase in HO-1 mRNA level at 1 to 10 uM measured up to 24 hrs by qRT-PCR analysis relative to control; type: cell-based
[17] = test system: BV-2; experiment: Antiinflammatory activity in mouse BV-2 cells assessed as suppression of LPS-induced […] protein expression at 10 uM measured up to 24 hrs by ELISA; type: functional, cell-based
[18] = test system: BV-2; experiment: Antiinflammatory activity in mouse BV-2 cells assessed as suppression of LPS-induced TNF-alpha protein expression at 10 uM measured up to 24 hrs by ELISA; type: functional, cell-based
[19] = target: T2, Nuclear factor erythroid 2-related factor 2 (Mus musculus); experiment: Activation of Nrf2 in mouse BV-2 cells assessed as increase in NQO-1 mRNA level at 10 uM measured after 24 hrs by qRT-PCR analysis relative to control; type: cell-based; conditions: filed as activator
[20] = target: T2, Nuclear factor erythroid 2-related factor 2 (Mus musculus); experiment: Activation of Nrf2 in mouse BV-2 cells assessed as upregulation of NQO-1 protein expression at 10 uM measured after 24 hrs by Western blot analysis relative to control; type: cell-based; conditions: filed as activator
[21] = target: T2, Nuclear factor erythroid 2-related factor 2 (Mus musculus); experiment: Activation of Nrf2 in mouse BV-2 cells assessed as upregulation of NQO-1 protein expression measured after 24 hrs by Western blot analysis; type: cell-based; conditions: filed as activator
[22] = test system: BV-2; experiment: Antiinflammatory activity in mouse BV-2 cells assessed as suppression of LPS-induced IL-6 protein expression at 10 uM measured up to 24 hrs by ELISA; type: functional, cell-based
[23] = test system: BV-2; experiment: Upregulation of NQO-1 in mouse BV-2 cells transfected with Nrf2 shRNA at 10 uM measured after 24 hrs by qPCR analysis; type: functional, cell-based
[24] = target: T2, Nuclear factor erythroid 2-related factor 2 (Mus musculus); experiment: Activation of Nrf2 in mouse BV-2 cells assessed as increase in NQO-1 mRNA level at 1 to 10 uM by qRT-PCR analysis; type: cell-based; conditions: filed as activator, dose 1-10 µM, time 6-24 hrs
[25] = target: T2, Nuclear factor erythroid 2-related factor 2 (Mus musculus); experiment: Activation of Nrf2 in mouse BV-2 cells assessed as upregulation of HO-1 protein expression measured after 24 hrs by Western blot analysis; type: cell-based; conditions: filed as activator
[26] = target: T2, Nuclear factor erythroid 2-related factor 2 (Mus musculus); experiment: Activation of Nrf2 in mouse BV-2 cells assessed as increase in NQO-1 mRNA level measured after 6 to 24 hrs by qRT-PCR analysis; type: cell-based; conditions: filed as activator, dose 1-10 µM, time 6-24 hrs
[27] = test system: BV-2; experiment: Antiinflammatory activity in mouse BV-2 cells assessed as suppression of LPS-induced […] mRNA expression at 10 uM measured up to 24 hrs by qRT-PCR analysis; type: functional, cell-based
[28] = test system: BV-2; experiment: Upregulation of HO-1 in mouse BV-2 cells transfected with Nrf2 shRNA at 10 uM measured after 24 hrs by qPCR analysis; type: functional, cell-based
[29] = test system: BV-2; experiment: Antiinflammatory activity in mouse BV-2 cells assessed as suppression of LPS-induced IL-6 mRNA expression at 10 uM measured up to 24 hrs by qRT-PCR analysis; type: functional, cell-based

T1 sequence (Q16236 whole entry, the tested form may be a part): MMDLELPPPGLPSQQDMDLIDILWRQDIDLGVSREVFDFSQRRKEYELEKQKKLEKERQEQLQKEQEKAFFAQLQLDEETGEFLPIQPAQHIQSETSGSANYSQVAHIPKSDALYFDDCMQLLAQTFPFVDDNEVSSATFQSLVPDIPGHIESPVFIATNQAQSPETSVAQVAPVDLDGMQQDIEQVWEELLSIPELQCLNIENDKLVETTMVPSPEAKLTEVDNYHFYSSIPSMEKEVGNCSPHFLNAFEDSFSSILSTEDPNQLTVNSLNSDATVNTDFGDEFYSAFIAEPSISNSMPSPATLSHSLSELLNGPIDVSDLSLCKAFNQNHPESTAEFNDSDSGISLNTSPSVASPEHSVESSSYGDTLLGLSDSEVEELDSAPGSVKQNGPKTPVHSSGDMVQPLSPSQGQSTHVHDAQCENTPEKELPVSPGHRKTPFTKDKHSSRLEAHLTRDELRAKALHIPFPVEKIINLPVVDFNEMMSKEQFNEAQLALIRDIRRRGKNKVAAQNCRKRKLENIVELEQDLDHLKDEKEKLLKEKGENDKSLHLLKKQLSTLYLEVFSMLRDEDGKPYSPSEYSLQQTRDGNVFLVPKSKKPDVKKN
T1 sequence (Q14145 whole entry, the tested form may be a part): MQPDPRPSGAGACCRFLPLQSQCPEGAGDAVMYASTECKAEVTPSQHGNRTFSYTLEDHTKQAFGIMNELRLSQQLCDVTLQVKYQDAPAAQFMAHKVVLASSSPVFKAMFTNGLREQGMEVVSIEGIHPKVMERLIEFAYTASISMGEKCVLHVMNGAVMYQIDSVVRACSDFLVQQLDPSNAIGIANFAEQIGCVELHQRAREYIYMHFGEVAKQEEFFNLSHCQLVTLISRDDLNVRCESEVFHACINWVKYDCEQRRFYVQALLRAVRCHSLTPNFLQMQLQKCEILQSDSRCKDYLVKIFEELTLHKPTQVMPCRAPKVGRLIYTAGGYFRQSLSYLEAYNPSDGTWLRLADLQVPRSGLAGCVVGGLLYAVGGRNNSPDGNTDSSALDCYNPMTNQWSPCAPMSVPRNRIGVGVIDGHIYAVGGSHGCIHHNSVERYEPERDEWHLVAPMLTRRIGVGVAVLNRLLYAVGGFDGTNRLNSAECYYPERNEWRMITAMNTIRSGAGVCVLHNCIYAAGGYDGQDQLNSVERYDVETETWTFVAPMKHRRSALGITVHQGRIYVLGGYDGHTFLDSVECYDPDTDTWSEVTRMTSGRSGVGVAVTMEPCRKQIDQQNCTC
Keap1/Nrf2 (Homo sapiens), sequence (Q14145 whole entry, looked up): as the sequence (Q14145 whole entry, the tested form may be a part) above
Keap1/Nrf2 (Homo sapiens), sequence (Q16236 whole entry, looked up): as the sequence (Q16236 whole entry, the tested form may be a part) above

O=C(O)CN(c1ccc(N(CC(=O)O)S(=O)(=O)c2ccc3c(c2)OCCO3)c2ccccc12)S(=O)(=O)c1ccc2c(c1)OCCO2
IC50 [1]: 31.3 nM | Activity [2]: Non-Toxic | IC50 [3]: 120 nM | fold change (FC) [4]: < 2 | Activity [5]: Non-Toxic

CS(=O)(=O)Nc1ccc(S(=O)(=O)N(CC(=O)O)c2ccc(N(CC(=O)O)S(=O)(=O)c3ccc(NS(C)(=O)=O)cc3)c3ccccc23)cc1
IC50 [3]: 194 nM

O=C(O)CN(c1ccc(N(CC(=O)O)S(=O)(=O)c2ccc3c(c2)OCO3)c2ccccc12)S(=O)(=O)c1ccc2c(c1)OCO2
Activity [2]: Non-Toxic | IC50 [3]: 149 nM | fold change (FC) [6]: > 2 | fold change (FC) [4]: < 2 | Activity [5]: Non-Toxic

O=S(=O)(c1ccc(C(F)(F)F)cc1)N(Cc1nnn[nH]1)c1ccc(N(Cc2nnn[nH]2)S(=O)(=O)c2ccc(C(F)(F)F)cc2)c2ccccc12
IC50 [3]: 302 nM

COc1ccc(S(=O)(=O)N(CC(=O)O)c2ccc(N(CC(=O)O)S(=O)(=O)c3ccc(OC)cc3Br)c3ccccc23)c(Br)c1
IC50 [3]: 184 nM

O=C(O)CN(c1ccc(N(CC(=O)O)S(=O)(=O)c2ccc3c(c2)CCO3)c2ccccc12)S(=O)(=O)c1ccc2c(c1)CCO2
Activity [2]: Non-Toxic | IC50 [3]: 164 nM | fold change (FC) [7]: 4 | fold change (FC) [4]: < 2 | Activity [5]: Non-Toxic

CN(C)C=O
Activity [8]: Active | Activity [9]: Active

COc1ccc(S(=O)(=O)N(Cc2nnn[nH]2)c2ccc(N(Cc3nnn[nH]3)S(=O)(=O)c3ccc(OC)cc3)c3ccccc23)cc1
IC50 [1]: 10.8 nM | IC50 [3]: 96.7 nM

O=S(=O)(c1ccc2c(c1)OCCO2)N(Cc1nnn[nH]1)c1ccc(N(Cc2nnn[nH]2)S(=O)(=O)c2ccc3c(c2)OCCO3)c2ccccc12
IC50 [1]: 7.2 nM | Activity [2]: Non-Toxic | IC50 [3]: 93.5 nM | fold change (FC) [4]: < 2 | Activity [5]: Non-Toxic

O=C(O)CN(c1ccc(N(CC(=O)O)S(=O)(=O)c2ccc(NC(=O)C(F)(F)F)cc2)c2ccccc12)S(=O)(=O)c1ccc(NC(=O)C(F)(F)F)cc1
IC50 [3]: 126 nM

O=C(O)CN(c1ccc(N(CC(=O)O)S(=O)(=O)c2ccc3c(c2)CCCO3)c2ccccc12)S(=O)(=O)c1ccc2c(c1)CCCO2
fold change (FC) [10]: 4 | Activity [2]: Non-Toxic | IC50 [3]: 146 nM | fold change (FC) [4]: < 2 | Activity [5]: Non-Toxic

O=C(O)CN(c1ccc(N(CC(=O)O)S(=O)(=O)c2ccc(N3C(=O)c4ccccc4C3=O)cc2)c2ccccc12)S(=O)(=O)c1ccc(N2C(=O)c3ccccc3C2=O)cc1
IC50 [1]: 11.5 nM | IC50 [3]: 82 nM

O=C(O)CN(c1ccc(N(CC(=O)O)S(=O)(=O)c2ccc(C(F)(F)F)cc2)c2ccccc12)S(=O)(=O)c1ccc(C(F)(F)F)cc1
IC50 [3]: 384 nM

O=C(O)CN(c1ccc(N(CC(=O)O)S(=O)(=O)c2ccc(Br)cc2)c2ccccc12)S(=O)(=O)c1ccc(Br)cc1
IC50 [3]: 235 nM

O=C(O)CN(c1ccc(N(CC(=O)O)S(=O)(=O)c2cc3c(cc2Cl)OCCO3)c2ccccc12)S(=O)(=O)c1cc2c(cc1Cl)OCCO2
fold change (FC) [11]: 3 | fold change (FC) [12]: 2 | Activity [13]: Active | Activity [14]: Active | fold change (FC) [15]: 3 | fold change (FC) [16]: < 2 | Activity [17]: Active | fold change (FC) [10]: 3 | Activity [18]: Active | fold change (FC) [19]: 18 | fold change (FC) [20]: 3 | Activity [21]: Dose-Dependent Effect | Activity [22]: Active | IC50 [1]: 8.9 nM | Activity [2]: Non-Toxic | IC50 [3]: 144 nM | Activity [23]: inactive | fold change (FC) [6]: > 2 | Activity [24]: Tde | fold change (FC) [4]: < 2 | Activity [25]: Dose-Dependent Effect | Activity [26]: Dose-Dependent Effect | Activity [27]: Active | Activity [28]: inactive | Activity [29]: Active | Activity [5]: Non-Toxic
